In US11786609B2, “Lipid compound as well as lipid vector, nucleic acid lipid nanoparticle composition, and pharmaceutical preparation comprising the same” (PURECODON (HONG KONG) BIOPHARMA LIMITED, priority 2021, dated 2023):

Experiments:
[1] = Particle size, PDI and encapsulation efficiency of LNP@mRNA; assay type: physicochemical; conditions: Example 26: LNP@mRNA of compound, cholesterol, DOPE, PEG-DMG 35:46.5:16:2.5; luciferase mRNA
Procedure: (§1) Compounds 1, 2, 17, 27 or 33 was each dissolved in the first solution with cholesterol, DOPE and PEG-DMG in a molar ratio of 35:46.5:16:2.5, and luciferase mRNA was dissolved in the second solution. […] Microfluidics was utilized to quickly mix the two phases, and dialysis or tangential flow was utilized to replace the buffer environment with PBS (pH 7.4) and thus remove ethanol, so as to prepare and afford five kinds of LNP@mRNAs, respectively.
Microfluidics was utilized to quickly mix the two phases, and dialysis or tangential flow was utilized to replace the buffer environment with PBS (pH 7.4) and thus remove ethanol, so as to prepare and afford LNP@mRNA.
The particle size, PDI and encapsulation efficiency of each of the above-mentioned LNP@mRNAs were determined, and the results were successively shown in Table 3.

[2] = as above; assay type: physicochemical; conditions: Example 26 LNP@mRNA, summary of Table 1
mice [3] = assay: Organ distribution of mRNA expression in mice after intravenous (tail vein) injection of LNP@mRNA; assay type: in vivo; conditions: 6 hours after intravenous (tail vein) injection, anatomical image
Procedure: as §1
(§2) The prepared LNP@mRNAs were each injected into mice via tail vein or muscle, and the fluorescence intensities and organ distribution in mice were determined 6 hours later.

mice [4] = assay: Fluorescence intensity in mice after intramuscular injection of LNP@mRNA (luciferase mRNA); assay type: in vivo; conditions: for maximum fluorescence intensity: intramuscular injection of LNP@mRNA (compound and other three lipids), FIG. 7
Procedure: as §1, §2
The prepared mRNA@LNPs were each injected into mice via intramuscular injection, and the fluorescence intensities and organ distribution in mice were determined 6 hours later.

| Structure (SMILES) | Encapsulation efficiency [1] | PDI [1] | Particle size [1] | encapsulation efficiency (in words) [2] | particle size (in words) [2] | mRNA expression in liver (mice [3]) | mRNA expression in spleen (mice [3]) | maximum fluorescence intensity (mice [4]) | expression relative to LNP@mRNA prepared by Compound 27 (mice [4]; intramuscular injection, ratio of maximum fluorescence intensities) |
| --- | --- | --- | --- | --- | --- | --- | --- | --- | --- |
| CCCCCCCCC(CCCCCC)C(=O)OCCN(CCCN(C)CCCN(CCOC(=O)C(CCCCCC)CCCCCCCC)CCOC(=O)C(CCCCCC)CCCCCCCC)CCOC(=O)C(CCCCCC)CCCCCCCC (centres unmarked) [Compound 1] | 96% | 0.14 | 95 nm | relatively high encapsulation efficiency | relatively small particle size |  |  |  |  |
| CCCCCCC(CCCC)C(=O)OCCN(CCCN(C)CCCN(CCOC(=O)C(CCCC)CCCCCC)CCOC(=O)C(CCCC)CCCCCC)CCOC(=O)C(CCCC)CCCCCC (centres unmarked) [Compound 2] | 86% | 0.20 | 84 nm | relatively high encapsulation efficiency | relatively small particle size | few mRNA was expressed in liver | mainly expressed in spleen |  |  |
| CCCCCCCCC(CCCCCC)C(=O)OCCCCCCN(CCCCCCOC(=O)C(CCCCCC)CCCCCCCC)CCCN(C)CCCN(CCCCCCOC(=O)C(CCCCCC)CCCCCCCC)CCCCCCOC(=O)C(CCCCCC)CCCCCCCC (centres unmarked) [Compound 17] | 96% | 0.19 | 184 nm | relatively high encapsulation efficiency |  |  |  |  |  |

Continued, in another order:

| Encapsulation efficiency [1] | PDI [1] | Particle size [1] | encapsulation efficiency (in words) [2] | particle size (in words) [2] | Structure (SMILES) | mRNA expression in liver (mice [3]) | mRNA expression in spleen (mice [3]) | maximum fluorescence intensity (mice [4]) | expression relative to LNP@mRNA prepared by Compound 27 (mice [4]; intramuscular injection, ratio of maximum fluorescence intensities) |
| --- | --- | --- | --- | --- | --- | --- | --- | --- | --- |
| 57% | 0.21 | 90 nm |  | relatively small particle size | CCCCCCC(CCCC)C(=O)OCCCCCCN(CCCCCCOC(=O)C(CCCC)CCCCCC)CCCN(C)CCCN(CCCCCCOC(=O)C(CCCC)CCCCCC)CCCCCCOC(=O)C(CCCC)CCCCCC (centres unmarked) [Compound 27] | few mRNA was expressed in liver | mainly expressed in spleen | 3.39*10^5 |  |
| 96% | 0.11 | 86 nm | relatively high encapsulation efficiency | relatively small particle size | CCCCCCC(CCCC)C(=O)OCCCCOC(=O)CCN(CCCN(C)CCCN(CCC(=O)OCCCCOC(=O)C(CCCC)CCCCCC)CCC(=O)OCCCCOC(=O)C(CCCC)CCCCCC)CCC(=O)OCCCCOC(=O)C(CCCC)CCCCCC (centres unmarked) [Compound 33] | mainly expressed in liver | some mRNA was expressed in spleen | 1.59*10^7 | 46.9 times |
